Data on 2 compounds can be found in publication PMC7672456 (Nucleic Acids Research, 2020).

By IC50 is commonly meant the concentration at which inhibition is half-maximal. By Kd is commonly meant the equilibrium constant for the complex coming apart. Broadly, the koff is the rate constant with which the complex falls apart. A lower koff goes with slow dissociation. Broadly, the kon is the rate constant with which the complex forms.

One data set has as its system P. falciparum strain 3D7. Put plainly: In vitro Plasmodium growth assay. It counts as cell-based, Plasmodium falciparum.
Data set [1] addresses T1, HsLysRS (Homo sapiens, UniProt Q15046). Put plainly: ATP hydrolysis assay. It counts as biochemical.
Data set [2] addresses T2, PfLysRS (Plasmodium falciparum, UniProt Q8IDJ8). Briefly: Thermal shift assay. The data set is classed as binding. The note with it: for increase of Tm of PfLysRS: 200 μM compound.
The conditions of data set [3]: phase I, patients, oral; cited from earlier work.
Data set [4] deals with mammalian protein translation system. Put plainly: Mammalian protein translation assay in rabbit reticulocyte lysate. It counts as biochemical. The note with it: firefly luciferase mRNA.
Data set [5] has as its target T2, PfLysRS. Put plainly: Surface plasmon resonance. It counts as binding. On the technique in general: Surface plasmon resonance follows binding to a sensor surface in real time, without labels.
The target of data set [6] is T1, HsLysRS. Put plainly: Thermal shift assay. It counts as binding. The note with it: in the presence or absence of L-lysine.
Data set [7] deals with T2, PfLysRS. The note with it: cited from earlier work.

T1 sequence (Q15046 70-581): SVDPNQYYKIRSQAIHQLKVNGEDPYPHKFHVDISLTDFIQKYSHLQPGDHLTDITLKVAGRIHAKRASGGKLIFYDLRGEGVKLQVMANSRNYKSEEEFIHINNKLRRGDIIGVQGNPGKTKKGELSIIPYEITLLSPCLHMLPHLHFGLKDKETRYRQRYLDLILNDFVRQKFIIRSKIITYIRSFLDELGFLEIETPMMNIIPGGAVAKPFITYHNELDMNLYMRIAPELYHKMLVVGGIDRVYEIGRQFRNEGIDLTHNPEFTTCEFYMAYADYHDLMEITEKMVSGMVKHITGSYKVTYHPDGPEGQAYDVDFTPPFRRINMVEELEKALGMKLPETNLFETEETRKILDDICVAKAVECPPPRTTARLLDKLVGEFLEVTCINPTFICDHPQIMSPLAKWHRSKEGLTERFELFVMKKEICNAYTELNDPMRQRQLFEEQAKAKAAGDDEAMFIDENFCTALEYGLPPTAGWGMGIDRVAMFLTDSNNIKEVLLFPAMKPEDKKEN
T2 sequence (Q8IDJ8 77-583 limits assumed): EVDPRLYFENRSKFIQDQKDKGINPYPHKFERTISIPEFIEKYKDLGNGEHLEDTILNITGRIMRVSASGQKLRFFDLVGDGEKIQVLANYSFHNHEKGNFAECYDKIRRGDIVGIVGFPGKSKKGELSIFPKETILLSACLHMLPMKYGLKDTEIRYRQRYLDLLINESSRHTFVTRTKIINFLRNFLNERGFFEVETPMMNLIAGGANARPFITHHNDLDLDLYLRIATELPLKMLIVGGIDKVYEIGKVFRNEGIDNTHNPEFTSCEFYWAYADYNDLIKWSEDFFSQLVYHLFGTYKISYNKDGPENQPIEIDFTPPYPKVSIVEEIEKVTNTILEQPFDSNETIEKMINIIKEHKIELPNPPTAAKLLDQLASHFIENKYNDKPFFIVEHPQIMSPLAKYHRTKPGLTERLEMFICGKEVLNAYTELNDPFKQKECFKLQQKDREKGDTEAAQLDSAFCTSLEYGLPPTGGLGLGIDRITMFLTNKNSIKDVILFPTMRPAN

As for `COc1cc(N2CCC(N3CCN(C)CC3)CC2)ccc1Nc1ncnc(Nc2ccccc2S(=O)(=O)C(C)C)n1` [ASP3026, N-{2-Methoxy-4-[4-(4-methylpiperazin-1-yl)piperidin-1-yl]phenyl}-N'-[2-(propane-2-sulfonyl)phenyl]-1,3,5-triazine-2,4-diamine], the IC50 is 5.61 ± 0.26 µM in the data set with P. falciparum strain 3D7 (Plasmodium falciparum, 3D7, 72 h); > 250 µM on HsLysRS [1]; > 1000 µM in data set [4]. In the data set on P. falciparum strain 3D7 (synchronized ring stage, 25 μM, monitored over 72 h, Giemsa smears), the “parasite growth and morphology” value was “stopped growing completely until they eventually died”. For the same compound, the “fold less potent on HsLysRS than on PfLysRS (IC50 ratio)” value on HsLysRS [1] (ATP hydrolysis IC50 HsLysRS versus PfLysRS) is listed as “over 380 fold”. In addition, the results for the Kd at PfLysRS [2] and at PfLysRS [5] were ~0.238 µM and 0.239 µM, respectively. Besides, the “increase of Tm of PfLysRS” value stood at 8.0 °C at PfLysRS [2] (in the presence of L-lysine (500 μM)) and 10.0 °C on PfLysRS [2] (without L-lysine, 10 μM PfLysRS). Further, the half-life range in data set [3] is 22 to 85 h. The median half-life in data set [3] was 35 h. This compound also registered a koff on PfLysRS [5] of 0.0063 s⁻¹. The compound also returned a kon on PfLysRS [5] of 26400 M⁻¹ s⁻¹. Besides, the “thermal stability of HsLysRS” value at HsLysRS [6] is reported as “could not increase the thermal stability”.

As for `C[C@H]1CCC[C@H](C[C@H]2Cc3cc(O)cc(O)c3C(=O)O2)O1` [cladosporin], at PfLysRS [7], the IC50 is ~0.004 µM and the “fold lower IC50 on PfLysRS compared to other eukaryotic LysRSs including human LysRS” value was 1000 fold.
